The source of these data is patent US10301295B2, “Herbicidal compounds” (Syngenta Participations AG, priority 2014, dated 2019).

Where two headings read alike, the source gives them in different places.

Common to all, as to format: in vivo
For one test, the system named is wheat. The test can be described thus: Post-emergence herbicidal activity against cereal crops (wheat) +/- safener, crop selectivity. To be noted: 100%=total damage to plant, 0%=no damage; for Post-emergence herbicidal activity against wheat (percentage phytotoxicity), +CQC: 250 g/ha, plus safener cloquintocet-mexyl (CQC) applied at 50 g/ha; for percent phytotoxicity (crop damage) to wheat at 250 g/ha: Triticum aestivum, 360 h, without safener, read-out: Post-emergence herbicidal activity against wheat (percentage phytotoxicity), Wheat - CQC. The gist of the method: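 Test plants raised in pots in a glasshouse (24/18 °C warm or 20/16 °C cool species day/night, 16 h light, 65% humidity) and treated post-emergence about 12 days after sowing. Visual percentage phytotoxicity scored 15 days after application (0% = no damage, 100% = total damage).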

A further test deals with Avena fatua (AVEFA). The test can be described thus: Glasshouse assay for herbicidal activity, pre-/post-emergence (percentage phytotoxicity). To be noted: Avena fatua, Rate 250 g/ha, 100%=total damage, 0%=no damage. Summed up:
(§1)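 Test plants are sown in pots of standard soil, held one day for pre-emergence or about twelve days for post-emergence, then treated. They grow on under glasshouse control with twice-daily watering, and damage is rated by eye as a percentage at 15 (post) or 20 (pre) days after application.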

The test system of test [1] is Echinochloa crus-galli (ECHCG). The description is as above. As to conditions: Echinochloa crus-galli, Rate 250 g/ha, 100%=total damage, 0%=no damage. Summed up:
as §1

Test [2] concerns Alopecurus myosuroides (ALOMY). The test is described as above. As to conditions: Alopecurus myosuroides, Rate 250 g/ha, 100%=total damage, 0%=no damage. The gist of the method:
as §1

A further test concerns Lolium perenne (LOLPE). The test is described as above. As to conditions: Lolium perenne, Rate 250 g/ha, 100%=total damage, 0%=no damage. Summed up:
as §1

Where [3] appears, read: post-emergence, 360 h, post-emergence, visual assessment 15 DAA, read-out: Post-emergence herbicidal activity (percentage phytotoxicity), AVEFA POST.
The mark [4] stands for this setting: pre-emergence, 480 h, pre-emergence, visual assessment 20 DAA, read-out: Pre-emergence herbicidal activity (percentage phytotoxicity), AVEFA PRE.
Setting [5] is: post-emergence, 360 h, post-emergence, visual assessment 15 DAA, read-out: Post-emergence herbicidal activity (percentage phytotoxicity), ECHCG POST.
[6] abbreviates: pre-emergence, 480 h, pre-emergence, visual assessment 20 DAA, read-out: Pre-emergence herbicidal activity (percentage phytotoxicity), ECHCG PRE.
Where [7] appears, read: 360 h, post-emergence, visual assessment 15 DAA, read-out: Post-emergence herbicidal activity (percentage phytotoxicity), ALOMY POST.
Setting [8] is: 480 h, pre-emergence, visual assessment 20 DAA, read-out: Pre-emergence herbicidal activity (percentage phytotoxicity), ALOMY PRE.
Setting [9] is: post-emergence, 360 h, post-emergence, visual assessment 15 DAA, read-out: Post-emergence herbicidal activity (percentage phytotoxicity), LOLPE POST.
The mark [10] stands for this setting: pre-emergence, 480 h, pre-emergence, visual assessment 20 DAA, read-out: Pre-emergence herbicidal activity (percentage phytotoxicity), LOLPE PRE.

For the compound `Cc1cc(C)c(C2C(=O)CC(CCNC(=O)NC(=O)c3ccc(F)cc3F)C2=O)c(C)c1` (stereo not drawn) [Compound A53], the “Post-emergence herbicidal activity against wheat (percentage phytotoxicity), +CQC” value in the test on wheat is 80%. The percent phytotoxicity (crop damage) to wheat at 250 g/ha with wheat was determined as 90%. The pest or weed control at 250 g/ha is 100% in the test with Avena fatua (AVEFA) (setting [3]); 70% with Avena fatua (AVEFA) (setting [4]); 100% in test [1] (setting [5]); 100% in test [1] (setting [6]); 90% in test [2] (setting [7]); 80% in test [2] (setting [8]). The pest or weed control at 250 g/ha with Lolium perenne (LOLPE) (setting [9]) was 100%; in the test on Lolium perenne (LOLPE) (setting [10]) it was 90%.
For `CC#Cc1cc(C)c(C2C(=O)CC(CCNC(=O)NC(C)(C)C)C2=O)c(C)c1` (stereo not drawn) [Compound A23], the “Post-emergence herbicidal activity against wheat (percentage phytotoxicity), +CQC” value in the test on wheat was determined as 80%. In addition, in the test with wheat, the percent phytotoxicity (crop damage) to wheat at 250 g/ha was 90%. Besides, the pest or weed control at 250 g/ha was determined as 100% with Avena fatua (AVEFA) (setting [3]); 100% in the test on Avena fatua (AVEFA) (setting [4]); 100% in test [1] (setting [5]); 100% in test [1] (setting [6]); 90% in test [2] (setting [7]); 100% in test [2] (setting [8]). Further, the pest or weed control at 250 g/ha in the test on Lolium perenne (LOLPE) (setting [9]) was 90%; in the test on Lolium perenne (LOLPE) (setting [10]), 100%.
For the compound `Cc1cc(-n2cc(Cl)cn2)cc(C)c1C1C(=O)CC(CCNC(=O)Nc2ccccn2)C1=O.Cl` (stereo not drawn) [Compound A13], the “Post-emergence herbicidal activity against wheat (percentage phytotoxicity), +CQC” value in the test on wheat worked out at 40%. Besides, in the test with wheat, the percent phytotoxicity (crop damage) to wheat at 250 g/ha is 70%. The pest or weed control at 250 g/ha with Avena fatua (AVEFA) (setting [3]) amounted to 100%; with Avena fatua (AVEFA) (setting [4]), 40%; in test [1] (setting [5]) it was 100%; in test [1] (setting [6]) it was 90%; in test [2] (setting [7]) it was 90%; in test [2] (setting [8]), 70%. The pest or weed control at 250 g/ha with Lolium perenne (LOLPE) (setting [9]) came out at 70%; in the test on Lolium perenne (LOLPE) (setting [10]), 50%.
On to `Cc1cc(C)c(C2C(=O)CC(CCNC(=O)NC(=O)c3cc(F)ccc3C(F)(F)F)C2=O)c(C)c1` (stereo not drawn) [Compound A63], for which the “Post-emergence herbicidal activity against wheat (percentage phytotoxicity), +CQC” value in the test on wheat is given as 80%. For the same compound, in the test with wheat, the percent phytotoxicity (crop damage) to wheat at 250 g/ha stood at 80%. In addition, the pest or weed control at 250 g/ha in the test with Avena fatua (AVEFA) (setting [3]) was found to be 90%; with Avena fatua (AVEFA) (setting [4]) it was 40%; in test [1] (setting [5]), 80%; in test [1] (setting [6]), 70%; in test [2] (setting [7]), 100%; in test [2] (setting [8]), 90%. In addition, the values for the pest or weed control at 250 g/ha with Lolium perenne (LOLPE) (setting [9]) and in the test on Lolium perenne (LOLPE) (setting [10]) were 90% and 80%, respectively.
With `Cc1cc(C)c(C2C(=O)CC(CCNC(=O)NC(=O)c3ccccn3)C2=O)c(C)c1` (stereo not drawn) [Compound A1, N-[2-[2,4-dioxo-3-(2,4,6-trimethylphenyl)cyclopentyl]ethylcarbamoyl]pyridine-2-carboxamide], in the test on wheat, the “Post-emergence herbicidal activity against wheat (percentage phytotoxicity), +CQC” value stood at 20%. In addition, in the test with wheat, the percent phytotoxicity (crop damage) to wheat at 250 g/ha came to 80%. The pest or weed control at 250 g/ha in the test on Avena fatua (AVEFA) (setting [3]) was 90%; in the test on Avena fatua (AVEFA) (setting [4]) it was 60%; in test [1] (setting [5]), 80%; in test [1] (setting [6]) it was 100%; in test [2] (setting [7]) it was 90%; in test [2] (setting [8]), 80%. In addition, the pest or weed control at 250 g/ha with Lolium perenne (LOLPE) (setting [9]) was found to be 90%; in the test with Lolium perenne (LOLPE) (setting [10]), 100%.
Turning to `Cc1cc(C)c(C2C(=O)CC(CCNS(=O)(=O)c3ccc(Cl)cc3)C2=O)c(C)c1` (stereo not drawn) [Compound A81], the “Post-emergence herbicidal activity against wheat (percentage phytotoxicity), +CQC” value in the test on wheat is given as 0%. The percent phytotoxicity (crop damage) to wheat at 250 g/ha in the test with wheat is 0%. Further, the pest or weed control at 250 g/ha in the test on Avena fatua (AVEFA) (setting [3]) was found to be 70%; with Avena fatua (AVEFA) (setting [4]), 70%; in test [1] (setting [5]) it was 60%; in test [1] (setting [6]), 70%; in test [2] (setting [7]) it was 60%; in test [2] (setting [8]), 60%. For the same compound, the pest or weed control at 250 g/ha with Lolium perenne (LOLPE) (setting [9]) was determined as 60%; with Lolium perenne (LOLPE) (setting [10]), 70%.
